{
  "source": "patent US20110306579A1",
  "about": "“METHODS OF NEUROPROTECTION USING NEUROPROTECTIVE STEROIDS AND A VITAMIN D” (EMORY UNIVERSITY, priority 2009, published 2011)",
  "key": {"[1]": {"biological_target": "T1, vitamin D binding protein (DBP) (Homo sapiens, UniProt P02774)", "T1 construct": "host or cells: serum", "T1 sequence (P02774 17-474)": "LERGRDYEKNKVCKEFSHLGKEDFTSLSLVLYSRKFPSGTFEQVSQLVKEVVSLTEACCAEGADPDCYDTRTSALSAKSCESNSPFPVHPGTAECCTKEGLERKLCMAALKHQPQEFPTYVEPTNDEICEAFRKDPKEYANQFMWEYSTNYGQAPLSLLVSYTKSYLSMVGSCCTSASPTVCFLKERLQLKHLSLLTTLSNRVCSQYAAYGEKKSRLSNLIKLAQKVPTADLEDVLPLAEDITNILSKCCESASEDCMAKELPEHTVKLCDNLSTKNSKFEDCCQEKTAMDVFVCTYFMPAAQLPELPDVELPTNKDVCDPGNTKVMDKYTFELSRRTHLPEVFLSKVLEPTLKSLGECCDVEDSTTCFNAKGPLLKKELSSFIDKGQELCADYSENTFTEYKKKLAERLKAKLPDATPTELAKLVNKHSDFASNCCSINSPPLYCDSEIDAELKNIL", "settings": "cited from earlier work"}, "[2]": {"system": "20-month old Fischer 344 rats", "experiment": "Cerebral edema analysis after cortical contusion brain injury", "assay_type": "in vivo, rat", "settings": "4 mg/kg; for edema compared to subjects treated with vehicle: 24 hours post brain injury; for mean % difference edema: brain tissue 24 hours post brain injury, i.p. at 1 h, s.c. at 6 and 24 h", "procedure": "The methodology used is described in VanLandingham et al., Neuropharmacology, 2006, 51, 1078-1085.\nSterile surgical procedures were used to prevent animal infection. Rats (20-month old Fischer 344 rats, which are the “human” equivalent of about 60 years old) were anesthetized and maintained on isoflurane and an equivalent amount of […] and O2 for 3 min prior to surgery. After brain contusion, O2 levels were doubled compared to […] and maintained through the reainder of the surgery procedure. A stereotaxic apparatus was used to stabilize the head in a horizontal position. Core body temperature was monitored and maintained at 37° C. using a Harvard homeothermic blanket (Harvard Apparatus, Holliston, Mass.). There was no direct measure used to deterct brain temperature. Blood oxygen and heart rate were maintained using a SurgiVet monitor (SurgiVet, Waukesha, Wis.) and maintained above 90% and 340 bpm respectively. A midline incision was made and the scalp retracted. A bilateral 6-mm craniotomy was performed with surgical drill centered at 3 mm rostral to bregma. The stainless steel impactor was positioned over the MFC at 3.0 mm A/P and 0.0 M/L. These coordinates represent the MFC as described by Paxinos and Watson (The Rat Brain in Stereotaxic Coordinates, Academic Press, San Diego, 1986). The cortical injury was induced using a pneumatically controlled device (Hoffman et al., J. Neurotrauma, 1994, 11, 417-431). Brain impact duration was 0.5 s. using a 5-mm impactor tip with a velocity set at 2.125 m/s and a cortical depth of 2 mm. Following the contusion, bleeding was halded and fascia and scalp were sutured shut. After surgery, animals were allowed to recover from anesthesia on a homeothermic heating blanket in a holding cage until awake. sham surgeries controlled for anesthesia and stress. All surgical procedures were the same, except that sham rates were not given a craniotomy or cortical injury. Previous studies using craniotomy as a control found no differences between shams with or without this procedure. (Goss et al., Pharmacol. Biochem. Behay. 2003, 76(2), 231-242).\nThese experimental solutions were then diluted 1:1 with sterile water for a final concentration of HBC of 22.5%.\nAll injections were done at the same time with brain harvesting at 24 h post-injury. Rats in each group were weightd prior to treatment to ensure proper dosage. The first injection at 1 h after surgery was given intraperitoneally to ensure rapid adsorption. All subsequent injections were made subcutaneously for gradual adsorption at 6 and 24 h. Injection times and neurosteroid doses were based on previous results of neurosteroid treatment (Roof et al., Twenty First Annual Meeting of the Society for Neuroscience, Miami Beach Fla., p. 191 and He et al., Exp. Neurol. 2004, 189, 404-412). The sterioids were dissolved in vehicle (22.5% 2-hydroxypropyl-b-cyclodextrin solution) at 4 mg/kg. The sham group received no treatment and injury control group received vehicle only.\nAt 24 h after traumatic brain injury flresh brains were extracted from the skull and the dorsal cerebrum was separated along the line of the lateral fissure. Four 3-mm coronal sections were cut rostral to caudal, placed in pre-weighed 1.5 mL tubes and re-weighed (wet weight). Tubes were then left uncapped and placed in a vacuum oven set at 60° C. with an atmospheric pressure of 0.3 for 48 h. Following tube recapping, the tissue samples were again weighed (dry weight). Cerebral edema (% water content) was determined as the difference in wet and dry weights divided by wet weight (Roof and Stein Restor. Neurol. Ncurosci., 1992, 4, 425-427). Edema measures are reflective of the difference inwater content between at the average of the two most rostral (injury region) segments and most caudal (occipital cortex) segments of the dorsal sections of the brain."}, "[3]": {"system": "20-month-old male Fischer 344 rats", "experiment": "Spontaneous locomotor activity (open field) after TBI", "assay_type": "in vivo, rat", "settings": "72 hours after injury; normalized to sham", "source_text": "The animals in this study were separated into two groups, vitamin D normal (D-normal) and vitamin D deficient (D-deficient). […] Animals in the D-deficient group were maintained on the diet for at least 21 days prior to surgery. […] For this same reason the null diet was not altered in any other way, and the rats assigned to the D-deficient group were maintained on it until they were killed for harvesting of brain tissue. Since vitamin D is activated by UVB light (280-315 nm wavelength), the overhead lights were modified to not produce radiation in this range.\nAnimals dehydrated due to blood loss were given 3 mL of lactated Ringer's solution subcutaneously within 6 hours of injury.\nAnimals were assigned to D-normal or D-deficicnt groups. […] The same assignment was followed for both 24-hour and 72-hour survival groups. […] All drug treatments were dissolved in vehicle, and injection volume was equally proportional to each animal's weight across all groups. The intact sham (SHAM) groups served to provide baseline data and therefore received no injury or injections.\nIn addition to molecular measures of inflammatory cytokines, the behavioral effects of the various treatments were examined. Since this study was limited to the short term effects on inflammation, only short-term Spontaneous Locomotor Activity was used."}, "[4]": {"system": "E18 rat primary cortical neurons", "experiment": "Glutamate-induced excitotoxic cell death (LDH release and MTT reduction assays)", "assay_type": "cell-based", "excerpt": "Lactate dehydrogenase (LDH) release and 3-(4,5-dimethylthiazol-2-yl)-2,5-diphenyltetrazolium bromide (MTT) reduction assays were used to measure cell death. NeuroPureTM E18 primary rat cortical cells were commercially procured (Catalogue # N200200, Genlantis, San Diego, Calif., USA) as micro-surgically dissected regions from day 18 embryonic Sprague-Dawley rat brain. The tissues were processed for culturing according to manufacturer specifications. Briefly, enzymatic pre-treatment of the tissue was done prior to mechanical dissociation by incubating the tissues in sterile NeuroPapain enzyme solution at 30° C. for 30 minutes. Following incubation, the cells were centrifuged and transferred to fresh plating medium, where they were then dissociated into isolated neurons using a P-1000 pipettor with a sterile 1 ml plastic tip (0.8-1.0 mm diameter opening). The cells were again centrifuged and seeded in multi-well plates pre-coated with poly-D-lysine (0.15 ml/cm^2, 50 μg/ml) and maintained at 37° C. in a humidified 5% CO2 atmosphere. All experiments were performed after 9-10 days in culture. Twenty-four hours before glutamate exposure, cultures were pre-treated with both PROG (Cat. #P3972; Sigma Aldrich, St. Louis, Mo., USA) and VDH(Cat. #D1530; Sigma) separately or in combination with VDH at various concentrations. Stock solutions of PROG and VDH were prepared in dimethylsulfoxide (DMSO; Cat. #D2650; […] Glutamate was diluted in phosphate-buffered saline (PBS, pH 7.4). All reagents were filter sterilized before being added to cultures. At Day 11, cortical neurons in fresh media were separated into five treatment groups: (i) control; (ii) 24 hour treatment with 0.5 μM glutamate (Sribnick E A, et al., (2004) J Neurosci Res 76: 688-696); ([…]) with subsequent exposure to glutamate for 24 hours; (iv) 24 hour pre-treatment with VDH (1, 5, 10, 20, 40, 80, 100 nM) with subsequent exposure to glutamate for 24 hours; (v) 24 hour pre-treatment with different combinations of PROG and […]: 20 μM+VDH: 1, 5, 10, 20, 40, 80, 100 nM) with subsequent exposure to glutamate for 24 hours. Two widely accepted assays (LDH release and MTT reduction assay) for the measurement of cell viability were used. These assays are considered very reliable and reproducible with high predictive validity and are widely used in various pharmacological studies ([…], et al., (2002) Endocrinology 143: 205-212.). The LDH assay was performed as follows. […] LDH activity was measured using a Cytotoxicity Detection Kit (Roche Molecular Biochemicals, Indianapolis, Ind., USA) and quantitated by measuring absorbance at 490 nm. Data were normalized against the amount of LDH activity released from vehicle-treated control cultures receiving no glutamate. Neuronal death was also assessed by MTT [3-(4,5-dimethylthiazol-2-yl)-2,5-diphenyltetrazolium bromide] assay, which is based on the cleavage of the tetrazolium ring of the pale yellow MTT into dark blue formazan crystals by mitochondrial dehydrogenase enzyme in viable cells. These blue formazan crystals accumulate within the cells due to their impermeability to cell membrane, and are then solubilized by adding DMSO. The intensity of blue colored formazan solution is directly proportional to the number of surviving cells. Concentrations were determined by photometric analysis. Briefly, 10 μl of MTT were added per well and incubated at 37° C. for 4 hours until purple precipitate was visible. DMSO (50 μl) was added to solubilize the crystals and the absorbance was read at 570 nm."}, "[5]": {"system": "E18 rat primary cortical neurons", "experiment": "Morphological analysis of cortical cultures (phase contrast)", "assay_type": "cell-based", "settings": "glutamate 0.5 μM for 24 h; data not shown", "excerpt": "Changes in the morphology of neurons treated with different drugs in various groups were observed using a phase-contrast microscope (Nikon). Primary cultures were mainly observed for neurite outgrowth, a hallmark feature of healthy cells, and the density of healthy cells in different groups."}, "MAPK (ERK1/2)": {"system": "MAPK (ERK1/2)", "experiment": "MAPK phosphorylation (p-ERK1/2 Western blot) in primary cortical neurons", "assay_type": "cell-based, rat", "settings": "VDH 100 nM, 30-minute treatment", "procedure": "PROG and VDH were added to the primary cultures, as described above, for 30 minutes ([…], et al., (2002) Endocrinology 143: 205-212) and the cells were lysed using RIPA lysis buffer kit (sc-24948, Santa Cruz, Calif., USA). Protein was determined in cell lysates by bicinchoninic acid (BCA) protein assay (Cat. # 23225, Pierce, Rockford, Ill., USA). Cell lysates (40 μg protein each sample) were separated under reducing and denaturing conditions by 12.5% acrylamide Criterion gel (BioRad, Hercules, Calif., USA) at 200V for 1 hour and transferred to a polyvinylidene difluoride (PVDF) membrane at 100V for 30 minutes. The non-specific binding sites of the membrane were blocked with 5% non-fat dry milk in PBS-T (phosphate buffered saline containing 0.05% Tween-20). […] Membranes were then incubated in horseradish peroxidase (HRP)-conjugated secondary antibody (Goat anti-rabbit IgG; 074-1506, KPL, Gaithersburg, Md., USA). β-actin was probed as a loading control. Blots were developed using a chemiluminescent substrate (Pierce) for 5 minutes."}, "[6]": {"settings": "Phase 1 and Phase 2 human trials; cited from earlier work"}, "[7]": {"system": "rat model of peripheral nerve injury", "settings": "100 IU/kg/day following nerve injury; cited from earlier work"}},
  "note": "Counter-ions that a name gives are not always drawn.",
  "data": [
    {"smiles": "C=C1CC[C@H](O)C/C1=C/C=C1\\CCC[C@]2(C)[C@@H]([C@H](C)CCCC(C)(C)O)CC[C@@H]12", "note": "[Compound 25OHD3, 25-hydroxyvitamin D3]", "values": [
      {"measurement": "fraction of total in serum bound by DBP", "setting": "[1]", "result": "about 88%"}
    ]},
    {"smiles": "CC(=O)[C@H]1CCC2C3CCC4=C[C@@H](OC(=O)[C@@H](N)C(C)C)CC[C@]4(C)C3CC[C@@]21C", "note": "(stereo partly drawn) [Compound 31, 3β-L-Valine-progesterone-HCl]", "values": [
      {"measurement": "edema compared to subjects treated with vehicle", "setting": "[2]", "result": "decrease in edema"},
      {"measurement": "mean % difference edema", "setting": "[2]", "result": 2.2, "unit": "%"}
    ]},
    {"smiles": "CC(C)[C@H](N)C(=O)O[C@@H](C)[C@H]1CCC2C3CCC4=CC(=O)CC[C@]4(C)C3CC[C@@]21C", "note": "(stereo partly drawn) [Compound 57, 20-S-L-Valine-progesterone HCl salt]", "values": [
      {"measurement": "edema compared to subjects treated with vehicle", "setting": "[2]", "result": "decrease in edema"},
      {"measurement": "mean % difference edema", "setting": "[2]", "result": 3.3, "unit": "%"}
    ]},
    {"smiles": "CC(=O)[C@H]1CCC2C3CCC4=C/C(=N/OC(=O)[C@@H](N)Cc5c[nH]c6ccccc56)CC[C@]4(C)C3CC[C@@]21C", "note": "(stereo partly drawn) [Compound 79, O-L-Tryptophan-C3-oxime-progesterone HCl salt]", "values": [
      {"measurement": "edema compared to subjects treated with vehicle", "setting": "[2]", "result": "decrease in edema"},
      {"measurement": "mean % difference edema", "setting": "[2]", "result": 1.9, "unit": "%"}
    ]},
    {"smiles": "C=C1/C(=C\\C=C2/CCC[C@]3(C)[C@@H]([C@H](C)CCCC(C)(C)O)CC[C@@H]23)C[C@@H](O)C[C@@H]1O", "note": "[VDH, 1,25-dihydroxyvitamin D3]", "values": [
      {"measurement": "spontaneous locomotor activity (total distance, resting, stereotypy, movement time)", "setting": "[3]", "result": "little or no benefit"},
      {"measurement": "best (most effective) concentration alone against glutamate-induced neuronal death", "setting": "[4]; LDH and MTT assays", "result": 0.1, "unit": "µM"},
      {"measurement": "shape of concentration response curve for neuroprotection against glutamate toxicity", "setting": "[4]; VDH alone, or PROG 20 μM with VDH 1-100 nM", "result": "U-shaped"},
      {"measurement": "neuroprotection against glutamate toxicity compared to vehicle-only group", "setting": "[4]; VDH higher concentrations (1-10 μM)", "result": "did not prevent neuronal loss"},
      {"measurement": "neuroprotection against glutamate toxicity compared to vehicle-only group", "setting": "[4]; VDH lower concentrations (0.001-0.5 μM), P<0.001", "result": "significantly protective"},
      {"measurement": "morphology of neurons (neuronal processes, number of neurons) after glutamate", "setting": "[5]", "result": "rescued neurons"},
      {"measurement": "increase in p-ERK1/2 level compared to control group", "setting": "MAPK (ERK1/2)", "result": 1.7, "unit": "×"}
    ]},
    {"smiles": "CC(=O)[C@H]1CC[C@H]2[C@@H]3CC[C@H]4C[C@](C)(O)CC[C@]4(C)[C@H]3CC[C@]12C", "note": "[ganaxolone, 3a-hydroxy-3b-methyl-5a-pregnan-20-one]", "values": [
      {"measurement": "tolerability", "setting": "[6]", "result": "well tolerated"}
    ]},
    {"smiles": "C=C1CC[C@H](O)C/C1=C/C=C1\\CCC[C@]2(C)[C@@H]([C@H](C)/C=C/[C@H](C)C(C)C)CC[C@@H]12", "note": "[vitamin D2, ergocalciferol]", "values": [
      {"measurement": "axogenesis and axon diameter", "setting": "[7]", "result": "significantly increased axogenesis and axon diameter"}
    ]}
  ]
}
